Data from PubChem BioAssay (NCI).
“And” between values parts separate entries of the source, which are not always exact repeats. Identical values can stand only once.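 Dose response: 5 concentrations. Exposure: 48 h. Format: 96-well plates. Endpoint: linear interpolation; highest concentration if not reached. Abbreviation: GI50, concentration required for 50% inhibition of growth. TGI: total growth inhibition.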

Assays:
Assay in all cases: NCI tumour cell line growth inhibition, 48 h
A498 renal = tested on: A498 renal
ACHN renal = tested on: ACHN renal
DU-145 prostate = tested on: DU-145 prostate
EKVX NSCLC = tested on: EKVX NSCLC
MALME-3M melanoma = tested on: MALME-3M melanoma
MDA-MB-435 = tested on: MDA-MB-435
NCI-H23 lung = tested on: NCI-H23 lung
NCI/ADR-RES ovarian = tested on: NCI/ADR-RES ovarian
RPMI-8226 leukemia = tested on: RPMI-8226 leukemia
SK-MEL-2 melanoma = tested on: SK-MEL-2 melanoma
SK-MEL-5 melanoma = tested on: SK-MEL-5 melanoma
SN12C renal = tested on: SN12C renal
SNB-75 CNS = tested on: SNB-75 CNS
SW-620 colon = tested on: SW-620 colon
UACC-62 melanoma = tested on: UACC-62 melanoma

O=c1[nH]nc(Cc2ccccc2)n1/N=C\c1ccccc1 was tested, and the TGI (A498 renal) was greater than 100 µM, the TGI (ACHN renal) was greater than 100 µM and the TGI (DU-145 prostate) was greater than 100 µM. It also gave a TGI (EKVX NSCLC) greater than 100 µM, a TGI (MALME-3M melanoma) greater than 100 µM and a TGI (MDA-MB-435) greater than 100 µM. It also gave a TGI (NCI-H23 lung) greater than 100 µM, a TGI (NCI/ADR-RES ovarian) greater than 100 µM and a TGI (RPMI-8226 leukemia) greater than 100 µM. The TGI (SK-MEL-2 melanoma) was greater than 100 µM, the TGI (SK-MEL-5 melanoma) was greater than 100 µM and the TGI (SN12C renal) was greater than 100 µM. For the same molecule, the TGI (SNB-75 CNS) was greater than 100 µM, the TGI (SW-620 colon) was greater than 100 µM and the TGI (UACC-62 melanoma) was greater than 100 µM.
O=C1NC(=O)C2(CCCCCC2)N1 showed a TGI (A498 renal) greater than 100 µM, a TGI (ACHN renal) greater than 100 µM and a TGI (DU-145 prostate) greater than 100 µM. For the same molecule, the TGI (EKVX NSCLC) was greater than 100 µM, the TGI (MALME-3M melanoma) was greater than 100 µM and the TGI (MDA-MB-435) was greater than 100 µM. For the same molecule, the TGI (NCI-H23 lung) was greater than 100 µM, the TGI (NCI/ADR-RES ovarian) was greater than 100 µM and the TGI (RPMI-8226 leukemia) was greater than 100 µM. For the same molecule, the TGI (SK-MEL-2 melanoma) was greater than 100 µM, the TGI (SK-MEL-5 melanoma) was greater than 100 µM and the TGI (SN12C renal) was greater than 100 µM. The TGI (SNB-75 CNS) was greater than 100 µM, the TGI (SW-620 colon) was greater than 100 µM and the TGI (UACC-62 melanoma) was greater than 100 µM.
CC(=O)Nc1ccc(-c2nc3ccccc3s2)cc1I gave a TGI (A498 renal) of 36.3 µM, a TGI (ACHN renal) greater than 100 µM and a TGI (DU-145 prostate) greater than 51 µM. It also gave a TGI (EKVX NSCLC) of 80.1 µM, a TGI (MALME-3M melanoma) greater than 94.2 µM and a TGI (MDA-MB-435) greater than 100 µM. For the same molecule, the TGI (NCI-H23 lung) was 51.4 µM, the TGI (NCI/ADR-RES ovarian) was greater than 96.3 µM and the TGI (RPMI-8226 leukemia) was greater than 100 µM. It also gave a TGI (SK-MEL-2 melanoma) greater than 100 µM, a TGI (SK-MEL-5 melanoma) greater than 100 µM and a TGI (SN12C renal) greater than 100 µM. The TGI (SNB-75 CNS) was 67.4 µM, the TGI (SW-620 colon) was greater than 100 µM and the TGI (UACC-62 melanoma) was greater than 76.9 µM.
Molecule CCN1C(=O)C(C)S/C1=N\NC(=O)CSc1nc2ccccc2c(=O)n1CC (configuration not stated) has a TGI (A498 renal) greater than 100 µM, a TGI (ACHN renal) greater than 100 µM and a TGI (DU-145 prostate) greater than 100 µM. It also gave a TGI (EKVX NSCLC) greater than 100 µM, a TGI (MALME-3M melanoma) greater than 100 µM and a TGI (MDA-MB-435) greater than 100 µM. For the same molecule, the TGI (NCI-H23 lung) was greater than 100 µM, the TGI (NCI/ADR-RES ovarian) was greater than 100 µM and the TGI (RPMI-8226 leukemia) was greater than 100 µM. For the same molecule, the TGI (SK-MEL-2 melanoma) was greater than 100 µM, the TGI (SK-MEL-5 melanoma) was greater than 100 µM and the TGI (SN12C renal) was greater than 100 µM. For the same molecule, the TGI (SNB-75 CNS) was greater than 100 µM, the TGI (SW-620 colon) was greater than 100 µM and the TGI (UACC-62 melanoma) was greater than 100 µM.
Work on c1cc2c(c(NC3=NCCO3)c1)CCC2 yielded a TGI (A498 renal) greater than 100 µM, a TGI (ACHN renal) greater than 100 µM and a TGI (DU-145 prostate) greater than 100 µM. The TGI (EKVX NSCLC) was greater than 100 µM, the TGI (MALME-3M melanoma) was greater than 100 µM and the TGI (MDA-MB-435) was greater than 100 µM. The TGI (NCI-H23 lung) was greater than 100 µM, the TGI (NCI/ADR-RES ovarian) was greater than 100 µM and the TGI (RPMI-8226 leukemia) was greater than 100 µM. The TGI (SK-MEL-2 melanoma) was greater than 100 µM, the TGI (SK-MEL-5 melanoma) was greater than 100 µM and the TGI (SN12C renal) was greater than 100 µM. For the same molecule, the TGI (SW-620 colon) was greater than 100 µM and the TGI (UACC-62 melanoma) was greater than 100 µM.
c1ccc(CNCCCCNCCCNCc2ccccc2)cc1 showed a TGI (ACHN renal) of 29.3 µM, a TGI (DU-145 prostate) of 49.3 µM and a TGI (EKVX NSCLC) of 57.3 µM. The TGI (MALME-3M melanoma) was 30.2 µM, the TGI (MDA-MB-435) was 34.7 µM and the TGI (NCI-H23 lung) was 47.4 µM. The TGI (NCI/ADR-RES ovarian) was greater than 100 µM, the TGI (RPMI-8226 leukemia) was greater than 100 µM and the TGI (SK-MEL-2 melanoma) was greater than 100 µM. The TGI (SK-MEL-5 melanoma) was 32.5 µM, the TGI (SN12C renal) was 36.4 µM and the TGI (SNB-75 CNS) was 49.4 µM. For the same molecule, the TGI (SW-620 colon) was 31.8 µM and the TGI (UACC-62 melanoma) was 32.4 µM.
For COc1ccc2[nH]cc([C@@H]3C4CCC(C4)[C@H]3NCc3cccc(CN[C@H]4C5CCC(C5)[C@@H]4c4c[nH]c5ccc(OC)cc45)c3)c2c1, the TGI (A498 renal) was 3.22 µM and 3.25 µM, the TGI (ACHN renal) was 2.55 µM and 3.16 µM and the TGI (DU-145 prostate) was 3.31 µM and 3.08 µM. The TGI (EKVX NSCLC) was 2.91 µM and 2.89 µM, the TGI (MALME-3M melanoma) was 3.32 µM and 3.31 µM and the TGI (MDA-MB-435) was 0.988 µM and 0.962 µM. The TGI (NCI-H23 lung) was 3 µM and 2.93 µM, the TGI (NCI/ADR-RES ovarian) was 3.04 µM and 2.98 µM and the GI50 (RPMI-8226 leukemia) was 0.66 µM. The TGI (RPMI-8226 leukemia) was 1.65 µM and 1.26 µM, the TGI (SK-MEL-2 melanoma) was 2.91 µM and 2.99 µM and the GI50 (SK-MEL-5 melanoma) was 1.25 µM. The TGI (SK-MEL-5 melanoma) was 2.52 µM and 2.99 µM, the TGI (SN12C renal) was 3.1 µM and 2.93 µM and the GI50 (SNB-75 CNS) was 0.785 µM. The TGI (SNB-75 CNS) was 2.59 µM and 2.03 µM, the GI50 (SW-620 colon) was 0.177 µM and the TGI (SW-620 colon) was 0.333 µM and 0.627 µM. It also gave a TGI (UACC-62 melanoma) of 3.19 µM.
